Earlier results as cited in patent US8808735B2, “Fast wet-massing method for the preparation of calcium-containing compositions” (Takeda Nycomed AS, priority 2005, dated 2014).

Tested on: fracture rate
Settings: annual injections of 150.000-300.000 IU

In the case of vitamin D, the overall fracture rate is given as “significant reduction”.
